Data from ChEMBL document CHEMBL1153252, “Anti-human immunodeficiency virus activity and cytotoxicity of derivatized buckminsterfullerenes” (Bioorg Med Chem Lett, 1996).
pEC50, pIC50: −log10 of the molar value.

Columns and labels:
[1] = Compound was evaluated for the toxicity in human PBM cells; type: functional, cell-based
[2] = Compound was evaluated for the anti-HIV-1 activity in human peripheral blood mononuclear cells infected with HIV-1LA1.; type: functional
Vero = assay: Compound was evaluated for the toxicity in rapidly dividing Vero cells (African Green monkeys kidney cells); type: functional, cell-based; conditions: Chlorocebus sabaeus

| Structure (SMILES) | pIC50 [1] | pEC50 ([2]; Homo sapiens) | pIC50 (Vero) | pEC50 [2] |
| --- | --- | --- | --- | --- |
| O=C(O)CCC(=O)OC1CCC23c4c5c6c7c8c9c%10c%11c%12c%13c%14c%15c%16c%17c%18c(c9c6c6c%18c9c%17c%17c%15c%15c%18c%14c%14c%12c%12c%11c8c(c8c%11c2c2c4c4c(c56)c9c5c4c4c2c2c%11c(c8%12)c%14c%18c2c4c%15c%175)C73C1)C%10C%13%16 (centres undefined) | < 4.00 | 5.20 | < 4.00 | – |
| O=C(O)CO/N=C1\CCC23c4c5c6c7c8c9c%10c%11c%12c%13c%14c%15c%16c%17c%18c(c9c6c6c%18c9c%17c%17c%15c%15c%18c%14c%14c%12c%12c%11c8c(c8c%11c2c2c4c4c(c56)c9c5c4c4c2c2c%11c(c8%12)c%14c%18c2c4c%15c%175)C73C1)C%10C%13%16 (centres undefined) | < 4.00 | 5.54 | < 4.00 | – |
| O=C(CCCc1ccc(C2(c3ccccc3)C34c5c6c7c8c9c%10c(c%11c%12c3c3c5c5c%13c6c6c7c7c9c9c%14c%10c%10c%11c%11c%12c%12c3c3c5c5c%13c%13c6c6c7c9c7c9c%14c%10c%10c%11c%11c%12c3c3c5c5c%13c6c7c6c9c%10c%11c3c56)C824)cc1)NC(CO)(CO)CO (centres undefined) | < 4.00 | 5.60 | < 4.00 | – |
| c1ccc(C2(c3ccc4c(c3)OCCOCCOCCOCCOCCO4)C34C5=C6C7=C8Cc9c%10c8c8c%11c%12c%13c%14c%15c(c6c6c%16c%17c(c%18c%19c3c(c3c9c9c%20c%10c%11c%10c%11c%12c%12c%14c(c%15%16)c%14c%17c%15c%18c%16c%19c3c9c3c%16c9c%15c%14c%12c%11c9c3c%20%10)C5)C642)C7C8%13)cc1 (centres undefined) | < 4.00 | 3.86 | < 4.00 | – |
| O=C(O)CO/N=C1\C=CC23c4c5c6c7c8c9c%10c%11c%12c%13c%14c%15c%16c%17c%18c(c9c6c6c%18c9c%17c%17c%15c%15c%18c%14c%14c%12c%12c%11c8c(c8c%11c2c2c4c4c(c56)c9c5c4c4c2c2c%11c(c8%12)c%14c%18c2c4c%15c%175)C73C1)C%10C%13%16 (centres undefined) | < 4.00 | 5.14 | 4.47 | – |
| COC1C/C(=N\OCC(=O)O)CC23c4c5c6c7c8c9c(c%10c%11c2c2c4c4c%12c5c5c6c6c8c8c%13c9c9c%10c%10c%11c%11c2c2c4c4c%12c%12c5c5c6c8c6c8c%13c9c9c%10c%10c%11c2c2c4c4c%12c5c6c5c8c9c%10c2c45)C713 (centres undefined) | < 4.00 | 6.05 | < 4.00 | – |
| CC12CCC/C(=N\OCC(=O)O)C1C13c4c5c6c7c8c9c%10c%11c%12c%13c%14c%15c(c6c6c4c4c%16c%17c%18c(c%19c%20c1c5c8c1c%20c5c%19c8c%18c%18c%19c%17c%17c4c6c%15c4c%14c6c%12c%12c%14c%11c(c91)c5c%14c8c%18c%12c6c%19c4%17)C%1623)C7C%10%13 (centres undefined) | < 4.00 | 4.66 | < 4.00 | – |
| CC1C=CC(COC(=O)CCC(=O)O)C23c4c5c6c7c8c9c%10c%11c%12c%13c%14c%15c%16c%17c%18c(c9c6c6c%18c9c%17c%17c%15c%15c%18c%14c%14c%12c%12c%11c8c(c8c%11c2c2c4c4c(c56)c9c5c4c4c2c2c%11c(c8%12)c%14c%18c2c4c%15c%175)C713)C%10C%13%16 (centres undefined) | < 4.00 | 5.66 | < 4.00 | – |
| CN1CC23C4=C5Cc6c7c5c5c8c9c%10c%11c%12c(c2c2c%13c%14c%15c%16c%17c%18c%19c%20c(c6c6c%20c%20c%18c%18c%21c%17c%14c%14c(c%12%13)c%11c%11c9c9c%12c8c7c6c%12c%20c%18c9c%11c%14%21)=C6CC3(C1)C(C2%15)C61CN(C)CC%16%191)C4C5%10 (centres undefined) | < 4.00 | 4.14 | < 4.00 | – |
| OC1CCC23CC4=c5c6c7c8c9c%10c%11c%12c%13c%14c%15c%16c%17c(c-8c8c%18c%17c%17c(c%19c%20c%21c%22c%23c%24c%25c%26c%27c%28c(c5c(c6%10)c5c%28c%25c(c%13c%24c%14c%22c%16c%17%21)c%115)CC%27=C(C%20C%23%26)C%192C1)C%18C3C41CC(O)CCC871)C9%15%12 (centres undefined) | < 4.00 | 4.75 | < 4.00 | – |
| O=C(O)CCC(=O)NCCc1ccc(C2(c3ccc(CCNC(=O)CCC(=O)O)cc3)C34c5c6c7c8c9c5c5c%10c%11c%12c(c%13c%14c%15c%16c%17c%18c%19c%20c%21c%22c(c-%13c3c6c%22c3c7c6c7c%13c%22c%23c%24c(c9c5c5c%11c9c(c%15%12)c%16c%11c%18c(c%13c%19c7c%213)c%23c%11c9c%245)C86%22)C%14C%20%17)C%1024)cc1 (centres undefined) | < 4.00 | 5.14 | < 4.00 | – |
| COC1CC(=O)CC23C4=c5c6c7c8c9c%10c%11c%12c%13c%14c%15c%16c%17c%18c%19c%20c(c%21c%22c%23c(c5c5c6c6c8c%11c8c%11c%12c%12c%14c(c%15%19)c%14c%20c%22c%15c%19c%23c5c(c68)c%19c%11c%12c%14%15)C%2112)C%18C3C1(C4)C(OC)CC(=O)CC%171C(=C9C7)C%16C%10%13 (single isomer, unassigned; isomer A) | – | – | – | < 4.00 |
| COC1CC(=O)CC23C4=c5c6c7c8c9c%10c%11c%12c%13c%14c%15c%16c%17c%18c%19c%20c(c%21c%22c%23c(c5c5c6c6c8c%11c8c%11c%12c%12c%14c(c%15%19)c%14c%20c%22c%15c%19c%23c5c(c68)c%19c%11c%12c%14%15)C%2112)C%18C3C1(C4)C(OC)CC(=O)CC%171C(=C9C7)C%16C%10%13 (stereo in doubt) | < 4.00 | – | < 4.00 | 5.11 |
| Cc1cn([C@H]2C[C@H](N=[N+]=[N-])[C@@H](CO)O2)c(=O)[nH]c1=O [ZIDOVUDINE] | < 4.00 | 8.40 | – | – |
